The text below walks through data of ChEMBL document CHEMBL5212743, “Selectivity Literature for EUbOPEN Chemogenomics Library wave 3” (2023).

By Ki is commonly meant a dissociation constant, usually derived from enzyme kinetics or from competition with a known ligand. In general, IC50 refers to the concentration at which inhibition is half-maximal. Low values mean inhibition by little substance, high ones a need for much substance.

Molecules are shown by their SMILES.

The target of assay [1] is T1, Gamma-aminobutyric acid receptor subunit alpha-1 (Homo sapiens, UniProt P14867).
T1 sequence (P14867 whole entry): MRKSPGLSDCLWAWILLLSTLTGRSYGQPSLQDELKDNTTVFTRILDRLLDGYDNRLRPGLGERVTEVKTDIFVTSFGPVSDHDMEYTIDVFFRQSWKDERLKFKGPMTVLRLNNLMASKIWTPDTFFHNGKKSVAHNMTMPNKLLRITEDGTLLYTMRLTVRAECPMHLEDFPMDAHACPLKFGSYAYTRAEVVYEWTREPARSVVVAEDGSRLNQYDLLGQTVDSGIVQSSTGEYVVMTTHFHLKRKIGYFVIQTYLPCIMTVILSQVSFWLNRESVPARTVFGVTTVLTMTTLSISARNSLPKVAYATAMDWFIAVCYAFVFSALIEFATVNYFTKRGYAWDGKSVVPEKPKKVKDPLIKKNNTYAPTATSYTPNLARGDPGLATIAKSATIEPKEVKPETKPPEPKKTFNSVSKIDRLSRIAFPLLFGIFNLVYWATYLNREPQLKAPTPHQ
As to the kind of experiment: Selectivity interaction (GPCR panel (PDSP screen)) EUB0000302b GABRA1.

The next assay deals with Kallikrein-7 (Homo sapiens, UniProt P49862). As to the kind of experiment: Selectivity interaction (Serine protease panel) EUB0000735a KLK7.
Chain of Kallikrein-7 (P49862 whole entry): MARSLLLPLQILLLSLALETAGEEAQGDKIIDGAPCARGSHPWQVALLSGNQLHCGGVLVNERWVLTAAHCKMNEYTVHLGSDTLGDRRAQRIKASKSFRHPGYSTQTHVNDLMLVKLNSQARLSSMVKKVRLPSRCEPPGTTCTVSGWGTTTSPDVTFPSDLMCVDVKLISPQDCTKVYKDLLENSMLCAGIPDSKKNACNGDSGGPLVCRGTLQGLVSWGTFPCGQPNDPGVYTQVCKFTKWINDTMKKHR
For a further assay, the target named is Prolyl endopeptidase FAP (Homo sapiens, UniProt Q12884). The experiment in a line: Selectivity interaction (Serine protease panel) EUB0000735a FAP.
For the next assay, the target named is Plasminogen (Homo sapiens, UniProt P00747). As to the kind of experiment: Selectivity interaction (Serine protease panel) EUB0000735a PLG.
Chain of Plasminogen (P00747 97-580 limits assumed): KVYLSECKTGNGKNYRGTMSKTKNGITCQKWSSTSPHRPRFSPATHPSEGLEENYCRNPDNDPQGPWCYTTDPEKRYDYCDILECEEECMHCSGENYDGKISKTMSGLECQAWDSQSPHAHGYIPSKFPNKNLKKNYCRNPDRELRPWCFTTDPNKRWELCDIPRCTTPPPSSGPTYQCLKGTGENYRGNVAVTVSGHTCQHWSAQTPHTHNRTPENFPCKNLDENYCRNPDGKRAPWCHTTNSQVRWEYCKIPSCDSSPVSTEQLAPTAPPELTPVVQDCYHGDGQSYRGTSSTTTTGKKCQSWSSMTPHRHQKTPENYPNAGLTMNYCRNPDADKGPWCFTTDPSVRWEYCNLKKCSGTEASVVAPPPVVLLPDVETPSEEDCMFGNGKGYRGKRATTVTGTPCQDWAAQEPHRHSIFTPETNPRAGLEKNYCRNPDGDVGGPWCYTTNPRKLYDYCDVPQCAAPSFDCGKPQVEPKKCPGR
Chain of Plasminogen (P00747 581-810 limits assumed): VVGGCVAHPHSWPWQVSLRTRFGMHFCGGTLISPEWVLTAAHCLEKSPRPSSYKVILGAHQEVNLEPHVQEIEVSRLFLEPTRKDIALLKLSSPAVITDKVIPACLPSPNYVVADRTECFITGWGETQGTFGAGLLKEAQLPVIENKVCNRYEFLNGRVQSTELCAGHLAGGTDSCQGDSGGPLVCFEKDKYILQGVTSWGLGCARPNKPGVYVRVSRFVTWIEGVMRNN
Assay [2] concerns the target cAMP-dependent protein kinase catalytic subunit beta (Homo sapiens) (UniProt P22694). As to the kind of experiment: Selectivity interaction (KinomeScan (DiscoverX)) EUB0000735a PRKACB. The settings on record: at 1 µM.
For another assay, the target named is Coagulation factor VII (Homo sapiens, UniProt P08709). The experiment in a line: Selectivity interaction (Serine protease panel) EUB0000735a F7.
Chain of Coagulation factor VII (P08709 61-212 limits assumed): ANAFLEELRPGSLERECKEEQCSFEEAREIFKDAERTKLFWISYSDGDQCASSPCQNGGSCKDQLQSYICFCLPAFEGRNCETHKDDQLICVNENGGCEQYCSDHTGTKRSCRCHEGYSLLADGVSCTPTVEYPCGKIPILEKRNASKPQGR
Chain of Coagulation factor VII (P08709 213-466 limits assumed): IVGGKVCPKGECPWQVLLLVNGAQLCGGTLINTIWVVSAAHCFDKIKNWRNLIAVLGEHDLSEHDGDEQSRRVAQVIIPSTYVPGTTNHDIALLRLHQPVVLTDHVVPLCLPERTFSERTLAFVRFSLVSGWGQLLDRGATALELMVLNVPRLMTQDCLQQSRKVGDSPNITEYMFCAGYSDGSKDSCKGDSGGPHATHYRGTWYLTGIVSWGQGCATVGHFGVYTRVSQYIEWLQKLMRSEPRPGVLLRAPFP
The next assay concerns the target Dipeptidyl peptidase 4 (Homo sapiens, UniProt P27487). The experiment in a line: Selectivity interaction (Serine protease panel) EUB0000735a DPP4.
In another assay the target is Dipeptidyl peptidase 2 (Homo sapiens, UniProt Q9UHL4). The experiment in a line: Selectivity interaction (Serine protease panel) EUB0000735a DPP7.
A further assay deals with Plasma kallikrein (Homo sapiens, UniProt P03952). The experiment in a line: Selectivity interaction (Serine protease panel) EUB0000735a KLKB1.
Chain of Plasma kallikrein (P03952 20-390 limits assumed): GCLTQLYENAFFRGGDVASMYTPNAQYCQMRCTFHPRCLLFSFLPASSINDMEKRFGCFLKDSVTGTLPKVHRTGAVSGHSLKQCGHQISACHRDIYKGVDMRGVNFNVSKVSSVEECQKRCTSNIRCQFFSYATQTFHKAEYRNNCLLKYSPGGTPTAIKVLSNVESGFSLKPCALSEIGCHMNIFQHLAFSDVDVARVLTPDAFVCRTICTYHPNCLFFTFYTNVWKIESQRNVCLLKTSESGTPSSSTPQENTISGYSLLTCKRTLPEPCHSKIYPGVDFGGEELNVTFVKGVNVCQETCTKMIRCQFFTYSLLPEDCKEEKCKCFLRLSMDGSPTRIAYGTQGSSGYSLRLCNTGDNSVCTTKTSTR
Chain of Plasma kallikrein (P03952 391-638 limits assumed): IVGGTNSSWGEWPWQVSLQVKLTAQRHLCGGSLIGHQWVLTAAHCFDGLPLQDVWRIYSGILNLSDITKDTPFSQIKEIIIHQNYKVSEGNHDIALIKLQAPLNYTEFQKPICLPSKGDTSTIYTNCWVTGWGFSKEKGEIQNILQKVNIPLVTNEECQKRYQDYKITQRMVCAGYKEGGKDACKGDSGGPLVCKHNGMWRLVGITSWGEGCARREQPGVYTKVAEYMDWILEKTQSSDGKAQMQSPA
The next assay addresses Serine protease 1 (Homo sapiens, UniProt P07477). The experiment in a line: Selectivity interaction (Serine protease panel) EUB0000735a PRSS1.
Assay [3] deals with cGMP-dependent protein kinase 1 (Homo sapiens) (UniProt Q13976). As to the kind of experiment: Selectivity interaction (KinomeScan (DiscoverX)) EUB0000735a PRKG1. To be noted: at 1 µM.
The next assay deals with Kallikrein-1 (Homo sapiens, UniProt P06870). As to the kind of experiment: Selectivity interaction (Serine protease panel) EUB0000735a KLK1.
The target of the next assay is Kallikrein-12 (Homo sapiens, UniProt Q9UKR0). The experiment in a line: Selectivity interaction (Serine protease panel) EUB0000735a KLK12.
Chain of Kallikrein-12 (Q9UKR0 whole entry): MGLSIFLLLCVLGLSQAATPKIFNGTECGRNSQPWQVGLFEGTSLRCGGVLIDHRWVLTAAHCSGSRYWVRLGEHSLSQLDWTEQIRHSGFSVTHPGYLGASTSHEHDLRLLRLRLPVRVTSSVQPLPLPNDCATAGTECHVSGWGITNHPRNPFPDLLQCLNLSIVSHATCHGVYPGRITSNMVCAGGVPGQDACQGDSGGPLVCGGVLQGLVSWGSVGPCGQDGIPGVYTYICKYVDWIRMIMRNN
Another assay concerns the target Cathepsin G (Homo sapiens, UniProt P08311). The experiment in a line: Selectivity interaction (Serine protease panel) EUB0000735a CTSG.
For a further assay, the target named is Kallikrein-4 (Homo sapiens, UniProt Q9Y5K2). As to the kind of experiment: Selectivity interaction (Serine protease panel) EUB0000735a KLK4.
A further assay has as its target Chymotrypsin-C (Homo sapiens, UniProt Q99895). As to the kind of experiment: Selectivity interaction (Serine protease panel) EUB0000735a CTRC.
The target in assay [4] is Chymotrypsin-like elastase family member 1 (Homo sapiens, UniProt Q9UNI1). The experiment in a line: Selectivity interaction (Serine protease panel) EUB0000735a CELA1.
A further assay deals with Coagulation factor IX (Homo sapiens, UniProt P00740). As to the kind of experiment: Selectivity interaction (Serine protease panel) EUB0000735a F9.
In a further assay the target is Chymase (Homo sapiens, UniProt P23946). The experiment in a line: Selectivity interaction (Serine protease panel) EUB0000735a CMA1.
A further assay deals with Coagulation factor XI (Homo sapiens, UniProt P03951). The experiment in a line: Selectivity interaction (Serine protease panel) EUB0000735a F11.
The next assay has as its target Kallikrein-5 (Homo sapiens, UniProt Q9Y337). The experiment in a line: Selectivity interaction (Serine protease panel) EUB0000735a KLK5.
The target of assay [5] is Phosphatidylinositol 4,5-bisphosphate 3-kinase catalytic subunit alpha isoform (Homo sapiens, UniProt P42336). As to the kind of experiment: Selectivity interaction (KinomeScan (DiscoverX)) EUB0000725a PIK3CA. The settings on record: at 10 µM.
Chain of Phosphatidylinositol 4,5-bisphosphate 3-kinase catalytic subunit alpha isoform (P42336 whole entry, canonical isoform): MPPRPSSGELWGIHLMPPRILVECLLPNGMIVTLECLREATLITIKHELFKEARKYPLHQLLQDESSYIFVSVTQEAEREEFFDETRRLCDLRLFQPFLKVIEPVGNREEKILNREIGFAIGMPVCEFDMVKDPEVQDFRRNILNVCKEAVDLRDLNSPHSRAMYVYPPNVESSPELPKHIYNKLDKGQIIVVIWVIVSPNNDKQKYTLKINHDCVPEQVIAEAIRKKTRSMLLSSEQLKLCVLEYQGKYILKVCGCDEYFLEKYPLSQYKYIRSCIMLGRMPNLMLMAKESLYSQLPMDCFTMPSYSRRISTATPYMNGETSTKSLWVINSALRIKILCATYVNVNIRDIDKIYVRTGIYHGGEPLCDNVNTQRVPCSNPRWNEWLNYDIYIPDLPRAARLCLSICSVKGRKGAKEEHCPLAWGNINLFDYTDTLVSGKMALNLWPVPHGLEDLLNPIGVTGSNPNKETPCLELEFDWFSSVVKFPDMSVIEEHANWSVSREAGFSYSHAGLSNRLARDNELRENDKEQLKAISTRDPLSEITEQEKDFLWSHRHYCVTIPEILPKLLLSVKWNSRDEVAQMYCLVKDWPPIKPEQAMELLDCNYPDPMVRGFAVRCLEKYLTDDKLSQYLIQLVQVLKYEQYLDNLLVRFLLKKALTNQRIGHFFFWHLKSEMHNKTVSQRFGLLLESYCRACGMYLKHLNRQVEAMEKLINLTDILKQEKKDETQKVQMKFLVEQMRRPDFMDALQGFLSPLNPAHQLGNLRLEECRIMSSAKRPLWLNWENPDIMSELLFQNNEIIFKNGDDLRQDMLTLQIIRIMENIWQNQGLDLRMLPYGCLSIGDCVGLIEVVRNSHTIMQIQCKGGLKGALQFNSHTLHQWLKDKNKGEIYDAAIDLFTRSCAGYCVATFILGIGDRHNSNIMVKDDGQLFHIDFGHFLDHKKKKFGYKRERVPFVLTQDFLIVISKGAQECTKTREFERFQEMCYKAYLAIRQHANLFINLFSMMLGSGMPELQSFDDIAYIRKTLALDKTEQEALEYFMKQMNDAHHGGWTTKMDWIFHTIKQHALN
Another assay addresses Interstitial collagenase (Homo sapiens, UniProt P03956). As to the kind of experiment: Selectivity interaction (MMPs panel (Panlabs panel, Bayer)) EUB0000725a MMP1.
Another assay concerns the target Stromelysin-1 (Homo sapiens, UniProt P08254). As to the kind of experiment: Selectivity interaction (MMPs panel (Panlabs panel, Bayer)) EUB0000725a MMP3.
The target in assay [6] is Uncharacterized serine/threonine-protein kinase SBK3 (Homo sapiens) (UniProt P0C264). The experiment in a line: Selectivity interaction (KinomeScan (DiscoverX)) EUB0000725a SBK3. The settings on record: at 10 µM.
Chain of Uncharacterized serine/threonine-protein kinase SBK3 (Homo sapiens) (P0C264 whole entry): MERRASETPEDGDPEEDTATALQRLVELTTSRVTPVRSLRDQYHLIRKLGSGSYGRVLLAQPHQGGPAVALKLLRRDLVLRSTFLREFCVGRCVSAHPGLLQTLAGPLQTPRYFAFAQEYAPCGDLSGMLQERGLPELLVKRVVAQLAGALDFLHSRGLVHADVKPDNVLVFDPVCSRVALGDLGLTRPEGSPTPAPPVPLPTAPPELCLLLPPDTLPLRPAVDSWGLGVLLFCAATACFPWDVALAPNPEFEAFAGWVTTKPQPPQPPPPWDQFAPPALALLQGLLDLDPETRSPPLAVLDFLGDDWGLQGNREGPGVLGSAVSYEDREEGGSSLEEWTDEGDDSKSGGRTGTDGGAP
The next assay addresses D(2) dopamine receptor (Homo sapiens, UniProt P14416). The experiment in a line: Selectivity interaction (GPCR panel (PDSP screen)) EUB0000725a DRD2. To be noted: at 10 µM.
The next assay addresses Collagenase 3 (Homo sapiens, UniProt P45452). The experiment in a line: Selectivity interaction (MMPs panel (Panlabs panel, Bayer)) EUB0000725a MMP13.
Assay [7] addresses Matrix metalloproteinase-14 (Homo sapiens, UniProt P50281). As to the kind of experiment: Selectivity interaction (MMPs panel (Panlabs panel, Bayer)) EUB0000725a MMP14.
For a further assay, the target named is Neutrophil collagenase (Homo sapiens, UniProt P22894). As to the kind of experiment: Selectivity interaction (MMPs panel (Panlabs panel, Bayer)) EUB0000725a MMP8.
Chain of Neutrophil collagenase (P22894 whole entry): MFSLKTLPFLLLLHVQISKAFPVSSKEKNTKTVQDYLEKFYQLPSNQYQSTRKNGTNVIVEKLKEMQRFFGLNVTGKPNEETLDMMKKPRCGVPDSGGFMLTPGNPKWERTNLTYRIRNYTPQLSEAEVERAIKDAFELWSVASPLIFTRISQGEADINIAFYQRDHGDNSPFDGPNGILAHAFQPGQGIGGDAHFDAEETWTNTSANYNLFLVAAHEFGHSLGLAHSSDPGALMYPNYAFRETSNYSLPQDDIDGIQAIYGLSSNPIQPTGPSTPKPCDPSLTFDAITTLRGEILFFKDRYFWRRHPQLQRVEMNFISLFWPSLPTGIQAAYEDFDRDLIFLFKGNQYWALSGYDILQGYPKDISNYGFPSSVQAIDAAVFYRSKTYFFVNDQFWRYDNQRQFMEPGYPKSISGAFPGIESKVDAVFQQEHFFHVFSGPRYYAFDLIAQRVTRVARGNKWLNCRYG
Assay [8] has as its target Matrix metalloproteinase-9 (Homo sapiens, UniProt P14780). As to the kind of experiment: Selectivity interaction (MMPs panel (Panlabs panel, Bayer)) EUB0000725a MMP9.
For assay [9], the target named is 72 kDa type IV collagenase (Homo sapiens, UniProt P08253). The experiment in a line: Selectivity interaction (MMPs panel (Panlabs panel, Bayer)) EUB0000725a MMP2.
The target of assay [10] is Macrophage metalloelastase (Homo sapiens, UniProt P39900). The experiment in a line: Selectivity interaction (MMPs panel (Panlabs panel, Bayer)) EUB0000725a MMP12.
Chain of Macrophage metalloelastase (P39900 whole entry): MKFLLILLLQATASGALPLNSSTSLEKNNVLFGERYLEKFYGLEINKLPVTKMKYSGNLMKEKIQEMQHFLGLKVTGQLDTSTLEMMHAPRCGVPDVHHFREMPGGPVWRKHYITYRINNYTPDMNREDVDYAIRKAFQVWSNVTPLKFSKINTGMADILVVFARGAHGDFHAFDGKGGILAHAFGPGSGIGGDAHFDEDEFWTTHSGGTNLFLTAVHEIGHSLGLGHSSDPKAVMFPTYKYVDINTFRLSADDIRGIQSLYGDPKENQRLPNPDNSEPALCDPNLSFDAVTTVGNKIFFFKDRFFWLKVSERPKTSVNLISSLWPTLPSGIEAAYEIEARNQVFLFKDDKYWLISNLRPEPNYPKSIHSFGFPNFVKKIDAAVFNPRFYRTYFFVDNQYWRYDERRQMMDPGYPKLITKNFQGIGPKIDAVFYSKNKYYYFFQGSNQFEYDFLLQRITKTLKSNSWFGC
For another assay, the target named is T2, Matrilysin (Homo sapiens, UniProt P09237).
T2 sequence (P09237 whole entry): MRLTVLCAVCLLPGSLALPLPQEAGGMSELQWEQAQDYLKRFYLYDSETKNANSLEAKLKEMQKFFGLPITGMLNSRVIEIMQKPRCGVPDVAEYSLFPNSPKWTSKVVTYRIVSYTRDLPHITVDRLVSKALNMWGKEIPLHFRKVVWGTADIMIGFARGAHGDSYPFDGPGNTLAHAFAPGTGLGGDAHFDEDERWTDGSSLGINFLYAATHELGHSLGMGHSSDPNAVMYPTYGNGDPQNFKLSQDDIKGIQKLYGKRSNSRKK
The experiment in a line: Selectivity interaction (MMPs panel (Panlabs panel, Bayer)) EUB0000725a MMP7.

Chain of Cathepsin G (P08311 whole entry): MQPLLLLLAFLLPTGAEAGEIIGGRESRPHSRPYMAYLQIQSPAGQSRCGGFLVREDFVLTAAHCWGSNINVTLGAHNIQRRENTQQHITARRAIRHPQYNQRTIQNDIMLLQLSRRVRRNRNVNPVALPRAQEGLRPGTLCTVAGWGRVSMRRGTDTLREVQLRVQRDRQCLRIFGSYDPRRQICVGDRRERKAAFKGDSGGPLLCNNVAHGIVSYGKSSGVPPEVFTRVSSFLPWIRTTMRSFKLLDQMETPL

`CCNC(=O)c1cc2c(N3CCOC[C@@H]3C)ccnc2[nH]1` returned a Ki in assay [1] of 1.53 µM.

In the case of `CC(=O)C1=C(C)N(c2cccc(C(F)(F)F)c2)C(=O)N[C@@H]1c1ccc(C#N)nc1` [BAY-678], the IC50 against Kallikrein-7, on Prolyl endopeptidase FAP, on Plasminogen, at Coagulation factor VII, at Dipeptidyl peptidase 4 and against Dipeptidyl peptidase 2 was above 30 µM each time. In addition, the 50% inhibitory concentration (IC50) against Plasma kallikrein, against Serine protease 1, on Kallikrein-1, against Kallikrein-12, against Cathepsin G and at Kallikrein-4 was above 30 µM in each case. Also, the IC50 (on Chymotrypsin-C; in [4]; against Coagulation factor IX; at Chymase; on Coagulation factor XI; against Kallikrein-5) was above 30 µM each time. The % of control in [2] came to 48.7%; in assay [3] it was 45.5%.

Consider `O=C(O)[C@@H]1[C@@H](Cn2nnc3ccccc3c2=O)CC[C@H]1C(=O)c1ccc(OCCC2CCOCC2)cc1` [BAY-694], for which the % of control in [5] was determined as 34%; in assay [6], 43%. Moreover, the IC50 (against Interstitial collagenase; at Stromelysin-1; on Collagenase 3; in assay [7]; on Neutrophil collagenase; in [8]) was above 10 µM in each case. Moreover, the IC50 (in assay [9]; in assay [10]; against Matrilysin) was above 10 µM throughout. This compound gave a % of inhibition on D(2) dopamine receptor of 30%.
